# Measurements reported in patent publication US9297798B2, “Therapeutic approach for polyglutamine degeneration” (The Chinese University of Hong Kong, priority 2013, dated 2016).
# Key:
# [1] = system: GRP78/BiP expression in MJDCAG78-expressing HEK293 cells; assay: Real-time PCR of GRP78/BiP in MJDCAG78-expressing HEK293 cells; type: cell-based; details: MJDCAG78-expressing HEK293 cells (FIG. 5D)
# From the text: (§1) FIG. 5. Depicts the distinct stress responses induced by toxic expanded CAG-RNA and polyQ protein which can be differentiated by pre-rRNA and GRP78/BiP gene expression respectively in transgenic Drosophila and mammalian cell models. […] “dpe” denotes days post eclosion. The CAG repeat sequence of the DsRedCAG constructs is located in the 3′ UTR, thus expanded CAG RNA is produced but not expanded polyglutamine protein. Only RNA toxicity is observed in the DsRedCAG model. […] The MJDCAG constructs express both expanded CAG RNA and polyglutamine protein. […] The MJDCAA/G construct only generates polyQ protein toxicity because the continuity of the expanded CAG sequence is disrupted which disrupts RNA toxicity. (D) Real-time PCR analysis of the effects of RNA and protein toxicity peptidylic inhibitors on pre-45s rRNA and GRP78/BiP expression in an MJD disease cell model. HEK293 cells expressing a polynucleotide encoding MJDCAG78 reduced pre-45s rRNA transcription and induced GRP78/BiP expression. […] Cells expressing a polynucleotide encoding MJDCAG27 served as a control. “SCR” and “P3MT5” represent scrambled QBP1 and mutant P3 peptides respectively.
# [2] = system: pre-45s rRNA transcription in MJDCAG78-expressing HEK293 cells; assay: Real-time PCR of pre-45s rRNA in MJDCAG78-expressing HEK293 cells; type: cell-based; details: MJDCAG78-expressing HEK293 cells (FIG. 5D)
# From the text: as §1
# DsRedCAG100 RNA toxicity = assay: Pseudopupil assay in DsRedCAG100 Drosophila fed with peptide; type: in vivo; details: larvae fed with synthetic peptide at 100 μM until adulthood
# Description: FIG. 3. Illustrates an in vivo reduction in expanded CAG-RNA toxicity by feeding Drosophila fly lines that overexpress DsRedCAG100 RNA with synthetic Nucleolin P3 peptide. DsRedCAG0 (A-C) and DsRedCAG100 (D-F) F1 larvae were fed with 100 μM of NCL P3 peptide until adulthood. Representative images of rhabdomeres (light-sensing organelles in eyes) taken from 1 day-old adult flies are shown. The average number of rhabdomeres per ommatidium (single eye unit of the adult flies) is shown at the bottom left hand corner of each image, and “+/−” represents s.e.m. from 3 independent sets of experiments. “NCL P3WT” represents wildtype NCL P3 peptide while “NCL P3MTc” represents mutant c NCL P3 peptide.
# DsRedCAG RNA was expressed in Drosophila fly eyes. DsRedCAG0 (FIGS. 3A-C) and DsRedCAG100 (FIGS. 3D-F) using a pseudopupil assay (Chan W M, et al. 2011). F1 larvae were fed with 100 μM of NCL P3 peptides until adulthood. The overexpression caused the integrity of the internal eye structure to deteriorate, as indicated by the reduced number of rhabdomeres which are subcellular organelles responsible for phototransduction (FIG. 3D). DsRedCAG100 larvae were fed with synthetic P3MTc (FIG. 3E) or P3 (FIG. 3F) peptide at 100 μM.
# polyQ protein toxicity = details: reported in literature, in vitro and in vivo; cited from earlier work
# [3] = system: Drosophila polyQ disease model; assay: Pseudopupil assay in transgenic Drosophila polyQ model (RNA and protein toxicities); type: in vivo; details: third instar larvae incubated with peptides (100 μM each); pseudopupil assay on 0-3 day-old adult flies
# Description: FIG. 7. (A) A co-treatment approach to target RNA and protein toxicities of polyQ diseases. (B) The combined effect of P3 and QBP1 peptides on suppressing neurodegeneration in a transgenic Drosophila polyQ model. Third instar larvae were incubated with corresponding peptides (100 μM each). Pseudopupil assay was performed on 0-3 day-old adult flies. The average number of rhabdomeres per ommatidium (single eye unit of the adult flies) is shown at the bottom left hand corner of each image. (C) Statistical analysis of (B). “WT” and “MT5” represent wildtype and mutant P3 peptides respectively. “SCR” denotes a scrambled sequence of QBP1. * represents P<0.05; ** represents P<0.01. Error bars represent standard deviation. Because both expanded CAG RNA and polyQ protein contribute to neurotoxicity, a therapeutic strategy that simultaneously targets these toxic species would be ideal for treatment. A similar combined therapeutic approach was recently reported in cancer treatment (Suzuki, et al., 2013), indicating its therapeutic potential of this strategy. We have performed a pilot study to simultaneously target both the RNA and protein toxicities using a well-studied protein toxicity peptide QBP1 (Nagai, et al., 2000) and P3, and has obtained satisfactory suppression (FIG. 7A).
# [4] = system: interaction between purified NCL and expanded CAG RNA (NCL: CAG78 RNA complex); assay: Competition assay: GST-NCL / CAG78 RNA pull-down on glutathione beads, bound RNA by RT-PCR; type: binding
# From the text: Purified GST-nucleolin (GST-NCL) protein was purchased from Abnova (H00004691-P01), and the control GST protein was expressed and purified as previously described (Tsoi H, et al. 2011). The CAG78 (SEQ ID NO:18) and CUG78 (SEQ ID NOP:19) RNAs were synthesized from a pcDNA3.1-MJDCAG78 PCR product, using the MEGAscript kit (Ambion) with the following primer pairs: T7CAGF, 5′-TAA AC GACTCACTATAGGGAGAAGAAGCCTACTTTGAAAAA-3′ (SEQ ID NO:20) and CAGR, 5′-CTG TCC TGA TAG GTC CCG-3′ (SEQ ID NO:21) for CAG78 (SEQ ID NO:18); and T7CUGF, 5′-TAATACGACTCACTATAGGGAGAAGACACGACTATCCAGGGC-3′ (SEQ ID NO:22) and CUGR, 5′-CTT CGG ATG AAA CTT TTT-3′ (SEQ ID NO:23) for CUG78 (SEQ ID NO:19). To perform in vitro protein-RNA interaction, 50 ng of GST protein was first captured by glutathione Sepharose beads (GE Healthcare). The purified in vitro transcribed RNA (10 pmol) was allowed to bind with GST-coated glutathione Sepharose beads and the mixture was incubated at 4° C. overnight in a 500-μL reaction volume. Before elution, the protein-RNA mixture was washed three times with 1 mL of binding buffer [20 mM Hepes, pH 7.4, 150 mM NaCl, 5 mM MgCl2, 0.5% Nonidet P-40, 40 units RNAsin (Promega), and 1 mg/mL yeast tRNA (Sigma)]. Bound RNA was then extracted for RT-PCR as described in Tsoi H, et al. 2011.
# These peptides were then tested for the ability to interact with expanded CAG RNA. […]
Substance,GRP78/BiP induction [1],pre-45s rRNA transcription [2],suppression of DsRedCAG100 RNA toxicity (pseudopupil assay score) (DsRedCAG100 RNA toxicity),suppression of polyQ protein toxicity (polyQ protein toxicity),suppression of neurodegeneration in Drosophila polyQ disease model [3],"disruption of the interaction between purified NCL and expanded CAG RNA, dose dependence ([4]; P3 at 10, 50, 100, 250, and 750 μM with NCL and CAG78 RNA (FIG. 1D))",interference with the interaction between purified NCL and expanded CAG RNA ([4]; Ten μM of each peptide with purified GST-NCL and CAG78 RNA (FIG. 1C))
"DGKSKGIAAIEAK (synthetic nucleolin RNA recognition motif (RRM), RRM domain of nucleolin, RRM-related sequence core amino acid sequence P3MT5/MTc) [Peptide P3MT5]",did not demonstrate such suppressive effects,did not demonstrate such suppressive effects,did not exert any rescuing effect,,,,
S N W K W W P G I F D (SNWKWWPGIFD; synthetic polyQ-mediated toxicity inhibitor peptide QBP1) [reference compound],suppressed GRP78/BiP induction,restored pre-45s rRNA transcription,,capable of suppressing polyQ protein toxicity both in vitro and in vivo,substantial suppression,,
"VPQNQNGKSKGYAF (synthetic nucleolin RNA recognition motif (RRM), RRM domain of nucleolin, RRM-related sequence core amino acid sequence P5) [Peptide P5]",,,,,,able to interfere with the interaction between purified NCL and expanded CAG RNA,able to interfere with the interaction between purified NCL and expanded CAG RNA
